This note sets out measurements from patent US20240382555A1, “PEPTIDES WITH ANTI-ANGIOGENIC ACTIVITY” (priority 2021, published 2024).

Holding throughout (format): cell-based, human
The subject of assay [1] is HUVECs. In words: Tube formation assay, HUVECs on growth factor-reduced Matrigel with pro-angiogenic stimuli. The conditions noted are these: for anti-angiogenic activity (number of tubes/well): HUVECs, 50 ng/ml VEGF-A or FGF-2, 10 ng/ml peptide, FIG. 5. How it is done:
Tube formation assays were performed as described in Caccuri F. et al., “Evolution toward beta common chain receptor usage links the matrix proteins of HIV-1 and its ancestors to human erythropoietin,” Proc Natl Acad Sci USA. 2021; 11810.
Briefly, 150 μl of Cultrex Basement Membrane Extract (Matrigel; 10 mg/ml) (Trevigen Inc., Gaithersburg, MD, USA) or reduced growth factor Matrigel (Trevigen Inc.) were transferred to prechilled 48-well culture plates. The plates were then incubated for 1 h at 37° C.
Cells were resuspended in EGM growth medium containing 10% FBS and seeded (5×10^4 per well). […] Capillary structures were photographed with a Hitachi KP-D50 camera and then quantified as the number of tubes/well.
In some experiments, HUVECs were stimulated with optimal concentrations of human pro-angiogenic molecules such as vascular endothelial growth factor-A (VEGF-A), fibroblast growth factor-2 (FGF-2), or interleukin-8 (IL-8). Experiments were conducted using nucleofected cells or cells stimulated with U94-derived peptides.
To evaluate the ability of the peptide of sequence SEQ ID No. 2 to influence the ability of HUVECs to respond to stimulation exerted by different angiogenic mediators, HUVECs were seeded on growth-reduced Matrigel in the absence (NT) or presence of optimal concentrations of different pro-angiogenic stimuli (VEGF-A, FGF-2, or IL-8) alone or in the presence of a control peptide (CTRL) or of the peptide of sequence SEQ ID No. 2 (KDKY).
HUVECs were seeded on reduced growth factor Matrigel-coated wells wells in complete medium containing 50 ng/ml of VEGF-A or FGF-2 alone or in combination with 10 ng/ml of the control peptide (CTRL), or KDKY, AKDY, KAKY, KDAY or KDKA.
HUVECs were seeded on reduced growth factor Matrigel-coated wells in complete medium containing 50 ng/ml of VEGF-A or FGF-2 alone or in combination with 10 ng/ml of CTRL, KDKY, DKY or DRY.

The subject of assay [2] is SARS-CoV-2-infected HL-mECs. The conditions noted are these: SARS-CoV-2-infected spheroids; FIG. 4.
Assay [3] relates to SARS-CoV-2-infected HL-mECs. The conditions noted are these: growth factor-reduced Matrigel; MOI 1; FIG. 3.
The test system of assay [4] is HUVECs. In words: Spheroids assay, HUVEC spheroids in type I collagen gel with pro-angiogenic stimuli. The conditions noted are these: HUVEC spheroids stimulated with VEGF-A, FGF-2 or IL-8; FIG. 2. How it is done:
The assay was performed using nucleofected cells or cells stimulated with U94-derived peptides. Spheroids were generated by mixing HUVECs (1.5×10^5 cells/ml) with 5 mg/ml methylcellulose (Sigma-Aldrich) in EGM growth medium containing 10% FBS, bringing the final volume to 10 ml.
The cells (100 μl/well) were then added to 96-well plates (Greiner Bio-one, Kremsmünster, Austria) and incubated at 37° C., in a 5% CO2 atmosphere for 24 hours.
Separately, the collagen I gel solution (Rat Tail, Corning) was maintained on ice and neutralized by adding NaOH 0.1 M and PBS 10× to a final pH of 7.4.
Then, 24-well plates were coated with neutralized collagen (200 μl/well) and incubated in a humidified 5% CO2 incubator for 1 hour at 37° C.
The spheroids from the 96-well plates were collected in Eppendorf tubes and centrifuged at 4000×rpm for 5 to 10 seconds. When a clear pellet was distinguished, the supernatant was removed and the pellet was kept in a volume of about 100 μl of collagen I-neutralized solution.
Each collagen-spheroid mixture was rapidly added to pre-coated 24-well plates at 100 μl/well and incubated for 1 h. […]
Sprouting occurred from the spheroid core, which was photographed with a Hitachi KP-D50 camera, and the sprout number was counted with the spheroids similar sizes from three different wells of the plate. […]

In the case of “ADKY [tetra-peptide, first amino acid of KDKY replaced by alanine]”, the “anti-angiogenic activity (number of tubes/well)” value with HUVECs [1] is given as “maintained potent anti-angiogenic activity”.
Take DKY: in the assay with HUVECs [1], the “anti-angiogenic activity (number of tubes/well)” value is recorded as “able to block angiogenic activity”.
As for DRY, the “anti-angiogenic activity (number of tubes/well)” value in the assay on HUVECs [1] is reported as “able to block angiogenic activity”.
Regarding KDKY [SEQ ID No. 2], in assay [2], the “SARS-CoV-2-induced angiogenesis (number of sprouts per spheroid)” value was “potently inhibited”. Further, the “angiogenic activity (number of tubes/well) of SARS-CoV-2-infected HL-mECs” value in assay [3] is “did not perform any angiogenic activity”. The “sprouting response (number of sprouts per spheroid)” value with HUVECs [4] was “drastic reduction in the sprouting response”. In addition, in the assay on HUVECs [1] (HUVECs stimulated with VEGF-A, FGF-2 or IL-8, 8 hours after seeding on Matrigel, FIG. 1), the “angiogenic activity (tube formation, number of tubes/well)” value is given as “significantly impaired”. Moreover, the “anti-angiogenic activity (number of tubes/well)” value in the assay on HUVECs [1] is “able to block angiogenic activity”.
